The values that follow come from patent US5354772A, “Indole analogs of mevalonolactone and derivatives thereof” (Sandoz Pharm. Corp., priority 1993, dated 1994).

The target in experiment [1] is T1, HMG-CoA reductase (Rattus norvegicus, UniProt P51639).
T1 construct: the microsomes are the source of the HMG-CoA reductase enzyme; from tissue; host or cells: liver microsomes, male Sprague-Dawley rats (150-225 g)
T1 sequence (P51639 1-887): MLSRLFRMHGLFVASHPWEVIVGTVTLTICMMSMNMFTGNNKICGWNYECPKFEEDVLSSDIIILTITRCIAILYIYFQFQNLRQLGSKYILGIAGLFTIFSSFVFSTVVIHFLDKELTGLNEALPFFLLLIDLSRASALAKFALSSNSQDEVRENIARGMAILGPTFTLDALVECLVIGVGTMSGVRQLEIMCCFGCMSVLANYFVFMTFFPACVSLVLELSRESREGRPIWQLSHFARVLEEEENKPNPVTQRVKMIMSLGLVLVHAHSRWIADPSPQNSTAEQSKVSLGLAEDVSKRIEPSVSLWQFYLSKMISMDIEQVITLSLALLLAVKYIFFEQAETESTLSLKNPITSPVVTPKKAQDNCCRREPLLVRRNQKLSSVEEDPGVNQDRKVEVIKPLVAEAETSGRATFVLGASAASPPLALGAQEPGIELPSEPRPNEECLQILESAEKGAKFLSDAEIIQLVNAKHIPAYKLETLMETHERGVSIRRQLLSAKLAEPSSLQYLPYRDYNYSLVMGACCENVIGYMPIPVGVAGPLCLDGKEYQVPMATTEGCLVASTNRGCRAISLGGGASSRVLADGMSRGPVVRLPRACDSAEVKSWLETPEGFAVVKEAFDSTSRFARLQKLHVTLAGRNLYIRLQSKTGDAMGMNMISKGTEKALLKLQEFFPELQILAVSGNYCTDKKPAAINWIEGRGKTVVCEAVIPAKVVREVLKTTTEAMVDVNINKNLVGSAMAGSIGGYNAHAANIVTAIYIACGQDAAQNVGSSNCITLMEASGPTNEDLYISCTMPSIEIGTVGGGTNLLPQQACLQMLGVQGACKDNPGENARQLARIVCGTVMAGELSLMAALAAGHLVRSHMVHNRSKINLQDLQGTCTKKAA
Put plainly: Test A. In Vitro Microsomal Assay of HMG-CoA Reductase Inhibition. The class given is biochemical. Particulars: rat liver microsomes, male Sprague-Dawley rats; read-out: IC50 (50% inhibition of HMG-CoA reductase activity). As for the experimental part: Test A. In Vitro Microsomal Assay of HMG-CoA Reductase Inhibition:
200 μl. aliquots (1.08-1.50 mg./ml.) of rat liver microsomal suspensions, freshly prepared from male Sprague-Dawley rats (150-225 g. body weight), in Buffer A with 10 mmol. dithiothreitol are incubated with 10 μl. of a solution of the test substance in dimethylacetamide and assayed for HMG-CoA reductase activity as described in Ackerman et al., J. Lipid Res. 18, 408-413 (1977). In the assay the microsomes are the source of the HMG-CoA reductase enzyme which catalyzes the reduction of HMG-CoA to mevalonate. The assay employs a chloroform extraction to separate the product, [^14 C]mevalonolactone, formed by the HMG-CoA reductase reaction from the substrate, [^14 C]HMG-CoA. [^3 H]mevalonolactoneis added as an internal reference. Inhibition of HMG-CoA reductase is calculated from the decrease in specific activity [^14 C/^3 H]mevalonate) of test groups compared to controls.
IC50 is the concentration of the test substance in the assay system
calculated to produce a 50% inhibition of HMG-CoA reductase activity (Test
A) or sterol biosynthesis (Test B) .

Experiment [2] concerns Fu5AH rat hepatoma cell line. The experiment is described as follows: Test B. In Vitro Cell Culture Cholesterol Biosynthesis Screen. To be noted: Fu5AH cells, 3 hours; for pIC50: [14C]acetate incorporation, read-out: IC50 (50% inhibition of sterol biosynthesis). In kind it is cell-based.
Procedure: The cell culture is prepared as follows: Stock monolayer cultures of the Fu5AH rat hepatoma cell line (originally obtained from G. Rothblat; see Rothblat, Lipids 9, 526-535 (1974)) are routinely maintained in Eagle's Minimum Essential Medium (EMEM) supplemented with 10% fetal bovine serum (FBS) in 75 cm.^2 tissue culture flasks. For these studies, when the cultures reach confluence, they are removed by mild enzymatic treatment with 0.25% trypsin in Hanks' balanced salt solution (without calcium and magnesium). After centrifugation of the cell suspension and aspiration of the enzymatic solution, the cell pellet is resuspended in an appropriate volume of media for seeding into 60 mm. tissue culture dishes. The cultures are incubated at 37° C. in an atmosphere of high humidity and 5% carbon dioxide. When the cultures are confluent (approximately 5 days), they are ready for use. The culture media is aspirated from the dishes and replaced with 3 ml. of EMEM supplemented with 5 mg./ml. of delipidized serum protein (DLSP) prepared by the method of Rothblat et al., In Vitro 12, 554-557 (1976). […] Enhanced 3-hydroxy-3-methylglutaryl Coenzyme A reductase (HMG-CoA reductase) activity is measurable in the cells in response to the lack of exogenous sterol. Following approximately 24 hours incubation at 37° C. in the DLSP supplemented media, the assay is initiated by the addition of 3 μCi of [^14 C]acetate and the test substance solubilized in dimethylsulfoxide (DMSO) or distilled water. Solvent controls and compactin-treated controls are always prepared. Triplicate 60 mm. tissue culture dishes are run for each group. After 3 hours incubation at 37° C., the cultures are examined microscopically using an inverted phase contrast microscope. Notations are made of any morphological changes which may have occurred in the cultures. The media is aspirated and the cell layer is gently washed twice with 0.9% sodium chloride solution (saline). The cell layer is then harvested in 3 ml. of 0.9% saline by gentle scraping with a rubber policeman and transferred to a clean glass tube with Teflon lined cap. The dishes are rinsed with 3 ml. of 0.9% saline and rescraped, and the cells are combined with the first harvest. The tubes are centrifuged at 1500 r.p.m. for 10 minutes in an IEC PR-J centrifuge, and the supernatant is aspirated.
The cells are then extracted as follows: One ml. of 100% ethanol is added to the cell pellet followed by sonication for 10 seconds with a "LO" setting of 50 on a Bronwell Biosonik IV. One hundred μl. are taken for protein determination. One ml. of 15% potassium hydroxide (KOH) is added, and the samples are thoroughly vortexed. Saponification is accomplished by heating the ethanol-KOH treated samples at 60° C. for 60 minutes in a water bath. Following dilution of the samples with 2 ml. of distilled water, they are extracted three times with 7 ml. of petroleum ether. The petroleum ether extracts are then washed three times with 2 ml. of distilled water and finally taken to dryness under a stream of nitrogen.
The obtained samples are then analyzed by thin layer chromatography (TLC) as follows: Residues from the petroleum ether extraction are taken up in a small volume of hexane and spotted on silica gel 60 TLC plates (E. Merck). Development of the plates is carried out in a three phase solvent system consisting of 150 parts by volume hexane: 50 parts by volume diethyl ether: 5 parts by volume glacial acetic acid.
Visualization is accomplished in an iodine vapor chamber. The plates are divided into five sections such that each section contains the molecules having the following approximate Rf values: section 1- 0-0.4, section 2- 0.4-0.55, section 3- 0.55-0.7, section 4- 0.7-0.9 and section 5- 0.9-1.0. Section 2 contains the non-saponifiable sterols. The five sections of the TLC plates are scraped into scintillation vials.
Experiment [3] has as its system sterol synthesis. Put plainly: Test C. In Vivo Cholesterol Biosynthesis Inhibition Test. The arrangement: species or system rat. To be noted: for ED50: Rattus norvegicus, read-out: ED50 (inhibition of sterol synthesis). The source says:
Test C. In Vivo Cholesterol Biosynthesis Inhibition Test In vivo studies utilize male Wistar Royal Hart rats weighing 150±20 g. which have been kept for 7-10 days on an altered light cycle (6:30 A.M.-6:30 P.M. dark) housed two per cage and fed powdered Purina Rat Chow and water ad libitum. […] Controls receive vehicle alone. […] Two hours after mid-dark, blood samples are obtained under sodium hexobarbitol anesthesia and the serum separated by centrifugation. […] Inhibition of sterol synthesis is calculated from the reduction in the nCi of sterols formed from test groups compared to controls.

The mark [4] stands for this setting: male Wistar Royal Hart rats, serum [14C] sterols.

pIC50: −log10 of the molar value. Where two headings read alike, the source gives them in different places.

For orientation: pIC50 means the IC50 on a negative log10 scale, so that one unit is a factor of ten. Broadly, the ED50 is the dose at which the effect has come halfway, by size or by number of responders. With `Cn1c(/C=C/[C@@H]2C[C@@H](O)CC(=O)O2)c(-c2ccc(F)cc2)c2ccccc21` (relative stereo) [Example 4 (a), (E)-Trans-6-[2'-[3"-(4'"-fluorophenyl)-1"-methylindol-2"-yl]ethenyl]-4-hydroxy-3,4,5,6-tetrahydro-2H-pyran-2-one], the pIC50 in experiment [1] is 5.52; in experiment [2], 6.21. In addition, the median effective dose (ED50) in experiment [3] (setting [4]) stood at 7 mg/kg.
For the compound `CC(C)n1c(/C=C/[C@@H](O)C[C@@H](O)CC(=O)O)c(-c2ccc(F)cc2)c2ccccc21` (relative stereo) [Example 8, Sodium erythro-(±)-(E)-3,5-dihydroxy-7-[3'-(4"-fluorophenyl)-1'-(1"-methylethyl)indol-2'-yl]hept-6-enoate], in experiment [2], the negative-log IC50 (pIC50) is 7.30. For the same compound, the ED50 in experiment [3] stood at 0.09 mg/kg.
Consider `CC(C)n1c(/C=C/[C@H](O)C[C@@H](O)CC(=O)O)c(-c2ccc(F)cc2)c2ccccc21` (relative stereo) [Example 9, Sodium threo-(±)-(E)-3,5-dihydroxy-7-[3'-(4"-fluorophenyl)-1'-(1"-methylethyl)indol-2'-yl]hept-6-enoate], for which, in experiment [2], the pIC50 is 6.66. For the same compound, in experiment [3], the ED50 came to 1.4 mg/kg.
`Cc1cc(C)cc(-c2c(/C=C/[C@@H](O)C[C@@H](O)CC(=O)O)n(C(C)C)c3ccccc23)c1` (relative stereo) [Example 14D, Sodium erythro-(±)-(E)-3,5-dihydroxy-7-[3'-(3",5"-dimethylphenyl)-1'-(1"-methylethyl)indol-2'-yl]hept-6-enoate]: in experiment [1], the pIC50 was 8.30. Moreover, the median effective dose (ED50) in experiment [3] (setting [4]) is 0.16 mg/kg.
Take `Cn1c(/C=C/[C@H](O)C[C@@H](O)CC(=O)O)c(-c2ccc(F)cc2)c2cccc(OCc3ccccc3)c21` (relative stereo) [Example 54]: the pIC50 in experiment [1] was 3.33.
In the case of `Cc1cc(C)c2c(-c3ccc(F)cc3)c(/C=C/[C@@H](O)C[C@@H](O)CC(=O)O)n(C(C)C)c2c1` (relative stereo) [Example 64], the pIC50 is 7.92 in experiment [1] and 7.52 in experiment [2]. The 50% effective dose (ED50) in experiment [3] (setting [4]) came out at 0.66 mg/kg.
In the case of `Cn1c(CC[C@@H]2C[C@@H](O)CC(=O)O2)c(-c2ccc(F)cc2)c2ccccc21` (relative stereo) [Example 89], in experiment [1], the pIC50 was 5.03.
As for `Cn1c(/C=C/[C@H]2C[C@@H](O)CC(=O)O2)c(-c2ccc(F)cc2)c2cccc(OCc3ccccc3)c21` (relative stereo) [Example 102], the negative logarithm of the IC50 (pIC50) in experiment [1] is < 3.00.
Take `CCn1c(/C=C/[C@H]2C[C@@H](O)CC(=O)O2)c(-c2ccc(F)cc2)c2ccccc21` (relative stereo) [Example 111]: the pIC50 in experiment [2] was 6.72.
Regarding `Cc1cc(-c2c(/C=C/[C@H]3C[C@@H](O)CC(=O)O3)n(C(C)C)c3ccccc23)ccc1F` (relative stereo) [Example 113], the pIC50 in experiment [1] was 7.52. The median effective dose (ED50) in experiment [3] (setting [4]) stood at 0.51 mg/kg.
On to `Cc1c(/C=C/[C@@H]2C[C@@H](O)CC(=O)O2)n(-c2ccccc2)c2ccccc12` (relative stereo) [Example 142], for which the pIC50 was 5.89 in experiment [1] and 5.82 in experiment [2]. Also, in experiment [3] (setting [4]), the median effective dose (ED50) is 6.1 mg/kg.
Take `CC[C@H](C)C(=O)O[C@H]1CCC=C2C=C[C@H](C)[C@H](CC[C@@H]3C[C@@H](O)CC(=O)O3)[C@H]21` [Compactin, reference compound]: the results for the pIC50 in experiment [1] and in experiment [2] were 6.11 and 7.22, respectively. Moreover, the ED50 in experiment [3] (setting [4]) stood at 3.5 mg/kg.
The corresponding values for `COC(=O)CC(O)CC(O)/C=C/c1c(-c2ccc(F)cc2)c2ccccc2n1C` (stereo not drawn) [Example 1, Methyl (E)-3,5-dihydroxy-7-[3'-(4"-fluorophenyl)-1'-methylindol-2'-yl]hept-6-enoate] are 5.77, 6.10 and 6.2 mg/kg.
Take `Cn1c(/C=C/C2CC(O)CC(=O)O2)c(-c2ccc(F)cc2)c2ccccc21` (stereo not drawn) [Example 3, (E)-6-[2'-[3"-(4'"-Fluorophenyl)-1"-methylindol-2"-yl]ethenyl]-4-hydroxy-3,4,5,6-tetrahydro-2H-pyran-2-one]: the negative logarithm of the IC50 (pIC50) in experiment [1] is 5.78; in experiment [2], 6.10. Moreover, in experiment [3] (setting [4]), the 50% effective dose (ED50) was > 10 mg/kg.
For the compound `Cn1c(/C=C/[C@@H]2C[C@@H](O)CC(=O)O2)c(-c2ccc(F)cc2)c2ccccc21` [Example 10, (E)-Trans-6S-[2'-[3"-(4'"-fluorophenyl)-1"-methylindol-2"-yl]ethenyl]-4R-hydroxy-3,4,5,6-tetrahydro-2H-pyran-2-one], the values for the pIC50 in experiment [1] and in experiment [2] were 5.77 and 6.38, respectively. The “percentage change of sterol synthesis” value in experiment [3] (at 4 mg./kg., male Wistar Royal Hart rats) is recorded as -47%.
For the compound `Cn1c(/C=C\[C@@H]2C[C@@H](O)CC(=O)O2)c(-c2ccc(F)cc2)c2ccccc21` [Example 12, (Z)-Trans-6S-[2'-[3"-(4'"-fluorophenyl)-1"-methylindol-2"-yl]ethenyl]-4R-hydroxy-3,4,5,6-tetrahydro-2H-pyran-2-one], the pIC50 in experiment [1] was 5.04. For the same compound, the inhibition at 1 µM in experiment [2] (at 1 μmolar, read-out: percentage change (%Δ) of sterol biosynthesis) came to 16%.
Take `CCOC(=O)CC(O)CC(O)/C=C/c1c(-c2ccc(F)cc2)c2ccc(OCc3ccccc3)cc2n1C` (stereo not drawn) [Example 21]: the pIC50 in experiment [2] is 6.70. For the same compound, the ED50 in experiment [3] (setting [4]) stood at 12.1 mg/kg.
In the case of `Cn1c(/C=C/C(O)CC(O)CC(=O)O)c(-c2ccc(F)cc2)c2ccc(OCc3ccccc3)cc21` (stereo not drawn) [Example 23], the pIC50 is 7.05 in experiment [1] and 6.22 in experiment [2].
On to `CCOC(=O)CC(O)CC(O)/C=C/c1c(-c2ccc(F)cc2)c2cc(Cl)ccc2n1C` (stereo not drawn) [Example 43], for which the pIC50 in experiment [1] was 5.02; in experiment [2], 6.13.
`CCOC(=O)CC(O)CC(O)/C=C/c1c(-c2ccc(F)cc2)c2ccccc2n1CC` (stereo not drawn) [Example 60]: the negative-log IC50 (pIC50) in experiment [1] is 6.92. Also, in experiment [3] (setting [4]), the median effective dose (ED50) is 0.87 mg/kg.
`CCOC(=O)CC(O)CC(O)/C=C/c1c(-c2ccc(F)cc2)c2ccc(OCc3ccccc3)cc2n1C(C)C` (stereo not drawn) [Example 75]: the pIC50 in experiment [1] is 8.27.
For `CCOC(=O)CC(O)CC(O)/C=C/c1c(C)c2ccccc2n1-c1ccccc1` (stereo not drawn) [Example 132], the pIC50 in experiment [1] was 5.79. In addition, in experiment [2] (at 10 μmolar, read-out: percentage change (%Δ) of sterol biosynthesis), the inhibition at 10 µM stood at 71%. Also, the “percentage change of sterol synthesis” value in experiment [3] (at 10 mg./kg., male Wistar Royal Hart rats) is reported as -35%.
With `CCC(C)C(=O)OC1CC(C)C=C2C=CC(C)C(CCC3CC(O)CC(=O)O3)C21` (stereo not drawn) [Mevinolin, reference compound], the median effective dose (ED50) in experiment [3] came out at 0.41 mg/kg.
